Reference: PMC12207590, “Substrate Specificity of the Organic Cation Transporters MATE1 and MATE2K and Functional Overlap with OCT1 and OCT2” (Journal of Medicinal Chemistry, 2025)
Where two headings read alike, the source gives them in different places.

Columns and labels:
MATE1 = target: T1, MATE1 (Homo sapiens, UniProt Q96FL8); assay: Uptake ratio in MATE1-overexpressing HEK293 cells vs empty vector (2.5 μM, 1 min, HPLC-MS/MS); assay type: cell-based
T1 sequence (Q96FL8 1-570): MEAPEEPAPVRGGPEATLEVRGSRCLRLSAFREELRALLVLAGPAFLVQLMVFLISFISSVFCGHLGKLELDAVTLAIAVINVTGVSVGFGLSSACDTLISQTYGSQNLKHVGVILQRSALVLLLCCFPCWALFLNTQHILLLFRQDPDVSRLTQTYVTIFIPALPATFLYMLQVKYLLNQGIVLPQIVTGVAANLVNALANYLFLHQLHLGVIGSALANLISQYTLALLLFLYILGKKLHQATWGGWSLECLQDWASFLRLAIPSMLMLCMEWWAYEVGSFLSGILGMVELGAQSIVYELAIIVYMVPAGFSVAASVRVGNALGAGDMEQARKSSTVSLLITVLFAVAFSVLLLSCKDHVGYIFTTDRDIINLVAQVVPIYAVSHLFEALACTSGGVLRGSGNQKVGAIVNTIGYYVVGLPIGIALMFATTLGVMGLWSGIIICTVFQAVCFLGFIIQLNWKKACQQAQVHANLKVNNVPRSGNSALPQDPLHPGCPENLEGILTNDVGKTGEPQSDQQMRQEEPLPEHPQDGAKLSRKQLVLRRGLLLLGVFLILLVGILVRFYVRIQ

MATE2K = MATE2K (Homo sapiens, UniProt Q86VL8); assay: Uptake ratio in MATE2K-overexpressing HEK293 cells vs empty vector (2.5 μM, 1 min, HPLC-MS/MS); assay type: cell-based
Sequence of MATE2K (Q86VL8 1-566 isoform Q86VL8-3): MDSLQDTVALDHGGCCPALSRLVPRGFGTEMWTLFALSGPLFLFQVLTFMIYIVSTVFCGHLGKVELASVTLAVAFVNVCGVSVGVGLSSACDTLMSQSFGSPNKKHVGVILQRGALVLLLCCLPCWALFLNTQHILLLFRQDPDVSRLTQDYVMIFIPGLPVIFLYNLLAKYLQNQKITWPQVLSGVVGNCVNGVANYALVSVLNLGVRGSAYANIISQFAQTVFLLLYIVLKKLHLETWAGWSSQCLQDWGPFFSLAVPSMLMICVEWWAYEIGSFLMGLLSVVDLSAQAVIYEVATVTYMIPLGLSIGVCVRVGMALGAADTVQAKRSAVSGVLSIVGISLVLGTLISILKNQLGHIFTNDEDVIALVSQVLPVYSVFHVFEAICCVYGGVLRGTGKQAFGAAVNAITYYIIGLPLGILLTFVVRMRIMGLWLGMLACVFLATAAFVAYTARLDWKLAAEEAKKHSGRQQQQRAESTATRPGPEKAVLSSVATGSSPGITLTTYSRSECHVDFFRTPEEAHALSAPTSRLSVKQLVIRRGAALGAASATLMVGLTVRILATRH

[1] = fold uptake over empty vector, 2.5 μM, 1 min
[2] = uptake ratio MATE1-overexpressing vs empty-vector HEK293 cells, 2.5 μM, 1 min, mean
[3] = uptake ratio MATE2K-overexpressing vs empty-vector HEK293 cells, 2.5 μM, 1 min, mean
[4] = mean ratio of uptake in MATE1-overexpressing HEK293 cells vs empty vector, 2.5 μM, 1 min
[5] = mean ratio of uptake in MATE2K-overexpressing HEK293 cells vs empty vector, 2.5 μM, 1 min

C[n+]1ccc(-c2ccccc2)cc1 [1-Methyl-4-phenylpyridinium]
MATE1 (uptake ratio) (MATE1): 23.35
MATE1 ratio (MATE1): 23.35
MATE1 ratio in this study (MATE1): 23.35
MATE2 (uptake ratio) (MATE2K): 9.05
MATE2K ratio (MATE2K): 9.05
MATE2K ratio in this study (MATE2K): 9.05

COc1cccc(C2(O)CCCCC2CN(C)C)c1 (centres unmarked) [Tramadol]
MATE1 (MATE1): 1.13
MATE2 (MATE2K): 1.44

CN(C)c1ccc2nc3ccc(=[N+](C)C)cc-3sc2c1 [Methylene blue]
MATE1 ratio (MATE1): 2.36
MATE2K ratio (MATE2K): 1.55

CC(C)NC[C@H](O)COc1ccc(O)cc1 [Prenalterol]
MATE1 ratio (MATE1; [1]): 5.01
MATE2K ratio (MATE2K; [1]): 1.62

COc1cc2c(cc1OC)-c1cc3ccc4c(c3c[n+]1CC2)OCO4 [Epiberberine]
MATE1 ratio (MATE1): 12.54
MATE2K ratio (MATE2K): 5.89

CCOc1ccccc1OCCN[C@H](C)Cc1ccc(OC)c(S(N)(=O)=O)c1 [Tamsulosin]
MATE1 (MATE1; [2]): 1.4

Nc1nc(=O)c2nc(CNc3ccc(C(=O)N[C@@H](CCC(=O)O)C(=O)O)cc3)cnc2[nH]1 [Folic acid]
MATE1 ratio (MATE1; [1]): 1.00
MATE2K ratio (MATE2K; [1]): 1.13

Cc1cc(C(C)(C)C)cc(C)c1CC1=NCCN1 [Xylometazoline]
MATE1 (MATE1): 1.55

NCC(O)c1ccc(O)cc1 (centres unmarked) [Octopamine]
MATE1 ratio (MATE1; [1]): 20.87
MATE2K ratio (MATE2K; [1]): 1.43

CC(CN(C)C)CN1c2ccccc2CCc2ccccc21 (centres unmarked) [Trimipramine]
MATE1 (MATE1; [2]): 1.19
MATE2 (MATE2K; [3]): 1.2

NC(N)=NCc1cccc(I)c1 [m-Iodobenzylguanidin]
MATE1 ratio (MATE1; [1]): 3.53
MATE2K ratio (MATE2K; [1]): 2.28

CC(C)c1cccc(C(C)C)c1O [Propofol]
MATE1 (MATE1): 0.64
MATE1 ratio (MATE1): 0.64
MATE2 (MATE2K): 0.8
MATE2K ratio (MATE2K): 0.80

COc1ccc(CC(C)(C)NC[C@H](O)c2cc(O)cc3c2OCC(=O)N3)cc1 [Olodaterol]
MATE1 ratio (MATE1; [1]): 3.34
MATE2K ratio (MATE2K; [1]): 6.19

C[C@@H]1Cc2c(Cl)cc(C(=O)N[C@@H](Cc3ccccc3)C(=O)O)c(O)c2C(=O)O1 [Ochratoxin A]
MATE1 ratio (MATE1): 3.12
substrate of MATE1 (MATE1): substrates of MATE1
MATE2K ratio (MATE2K): 1.28

CCCCCC(=O)OC(CC(=O)[O-])C[N+](C)(C)C (centres unmarked) [Hexanoylcarnitine]
MATE1 ratio (MATE1; [1]): 1.02
MATE2K ratio (MATE2K; [1]): 1.01

Cn1nnc2c(C(N)=O)ncn2c1=O [Temozolomide]
MATE1 (MATE1; [2]): 1.03
MATE2 (MATE2K; [3]): 1.1

CNC[C@H](O)c1ccc(O)c(O)c1 (racemic) [Epinephrine (rac), Epinephrine]
MATE1 ratio (MATE1; [1]): 18.70
MATE2K ratio (MATE2K; [1]): 3.27

OCc1cc(C(O)CNCCCCCCOCCCCc2ccccc2)ccc1O (centres unmarked) [Salmeterol]
MATE1 ratio (MATE1; [1]): 1.78
MATE1 (MATE1; [2]): 1.78
MATE2K ratio (MATE2K; [1]): 1.17
MATE2 (MATE2K; [3]): 1.17

CC[N+](C)(CC)CCOC(=O)C(O)(c1ccccc1)C1CCCCC1 (centres unmarked) [Oxyphenonium]
MATE1 ratio (MATE1; [1]): 9.89
MATE2K ratio (MATE2K; [1]): 2.04

C[C@](N)(Cc1ccc(O)c(O)c1)C(=O)O [Methyldopa]
MATE1 ratio (MATE1; [1]): 1.04
MATE2K ratio (MATE2K; [1]): 1.15

CC(=O)OC1CN2CCC1CC2 (centres unmarked) [Aceclidine]
MATE1 (uptake ratio) (MATE1): 1.26
MATE1 ratio (MATE1): 1.26
MATE2 (uptake ratio) (MATE2K): 1.08
MATE2K ratio (MATE2K): 1.08

NCCc1c[nH]c2ccccc12 [Tryptamine]
MATE1 (MATE1): 2.21

OC(c1ccccc1)(c1ccccc1)C12CC[N+](CCOCc3ccccc3)(CC1)CC2 [Umeclidinium]
MATE1 (MATE1; [2]): 4.54
MATE2 (MATE2K; [3]): 1.67

Nc1cccc2c1CN(C1CCC(=O)NC1=O)C2=O (centres unmarked) [Lenalidomide]
MATE1 ratio (MATE1; [1]): 1.78
MATE2K ratio (MATE2K; [1]): 1.53

CC(C)(C)NCC(O)COc1nsnc1N1CCOCC1 (stereo in doubt) [Timolol (R)]
MATE1 (MATE1; [2]): 0.94
MATE2 (MATE2K; [3]): 0.96

CCCCCCCCc1ccc(CCC(N)(CO)CO)cc1 [Fingolimod]
MATE1 ratio (MATE1; [1]): 1.12
MATE2K ratio (MATE2K; [1]): 1.14

COc1ccc(CC2c3cc(OC)c(OC)cc3CC[N+]2(C)CCC(=O)OCCCCCOC(=O)CC[N+]2(C)CCc3cc(OC)c(OC)cc3C2Cc2ccc(OC)c(OC)c2)cc1OC (centres unmarked) [Atracurium]
MATE1 ratio (MATE1; [1]): 1.13
MATE1 (uptake ratio) (MATE1; [4]): 1.13
MATE2K ratio (MATE2K; [1]): 1.10
MATE2 (uptake ratio) (MATE2K; [5]): 1.1

CN(C)C(=O)Oc1cc(OC(=O)N(C)C)cc(C(O)CNC(C)(C)C)c1 (centres unmarked) [Bambuterol]
MATE1 ratio (MATE1; [1]): 1.52
MATE1 (uptake ratio) (MATE1; [4]): 1.52
MATE2K ratio (MATE2K; [1]): 1.21
MATE2 (uptake ratio) (MATE2K; [5]): 1.21

NC(=O)OCC(COC(N)=O)c1ccccc1 [Felbamate]
MATE1 ratio (MATE1; [1]): 0.97
MATE2K ratio (MATE2K; [1]): 0.94

C[N+]1(C)CCC[C@H]1C(=O)[O-] [Stachydrine]
MATE1 ratio (MATE1; [1]): 0.83
MATE1 (MATE1; [2]): 0.83
MATE2K ratio (MATE2K; [1]): 1.31
MATE2 (MATE2K; [3]): 1.31

C[N+]1(C)[C@@H]2C[C@@H](OC(=O)C(O)(c3cccs3)c3cccs3)C[C@H]1[C@@H]1O[C@@H]12 [tiotropium]
MATE1 (MATE1): 27.4
MATE2 (MATE2K): 1.94

CNCCCC12CCC(c3ccccc31)c1ccccc12 [Maprotiline]
MATE1 ratio (MATE1; [1]): 1.17
MATE2K ratio (MATE2K; [1]): 1.04

N=C(N)N1Cc2ccccc2C(O)C1 (centres unmarked) [4-Hydroxydebrisoquine]
MATE1 ratio (MATE1; [1]): 9.59
MATE1 (uptake ratio) (MATE1; [4]): 9.59
MATE2K ratio (MATE2K; [1]): 3.34
MATE2 (uptake ratio) (MATE2K; [5]): 3.34

O=C(NCCNCC(O)COc1ccc(O)cc1)N1CCOCC1 (centres unmarked) [Xamoterol]
MATE1 (MATE1; [2]): 7.62
MATE2 (MATE2K; [3]): 6.13

COc1ccc(CCN)cc1O [4-Methoxy-m-tyramine]
MATE1 (uptake ratio) (MATE1): 3.09
MATE1 ratio (MATE1): 3.09
MATE2 (uptake ratio) (MATE2K): 1.19
MATE2K ratio (MATE2K): 1.19

CN1CCN(CC(=O)N2c3ccccc3C(=O)Nc3cccnc32)CC1 [Pirenzepine]
MATE1 ratio (MATE1; [1]): 2.80
MATE2K ratio (MATE2K; [1]): 1.36

COc1ccc(-n2nc(C(N)=O)c3c2C(=O)N(c2ccc(N4CCCCC4=O)cc2)CC3)cc1 [Apixaban]
MATE1 ratio (MATE1; [1]): 1.24
MATE1 (uptake ratio) (MATE1; [4]): 1.24
MATE2K ratio (MATE2K; [1]): 1.15
MATE2 (uptake ratio) (MATE2K; [5]): 1.15

NCCc1c[nH]c2c(O)cc(O)cc12 [5,7-Dihydroxytryptamine]
MATE1 (uptake ratio) (MATE1): 1.13
MATE1 ratio (MATE1): 1.13
MATE2 (uptake ratio) (MATE2K): 0.84
MATE2K ratio (MATE2K): 0.84

COc1ccccc1OCC(O)CN1CCN(CC(=O)Nc2c(C)cccc2C)CC1 (centres unmarked) [Ranolazine]
MATE1 ratio (MATE1; [1]): 1.11
MATE1 (MATE1; [2]): 1.11
MATE2K ratio (MATE2K; [1]): 1.30
MATE2 (MATE2K; [3]): 1.3

NCCc1c[nH]c2ccc(O)cc12 [Serotonin]
MATE1 ratio (MATE1; [1]): 12.11
MATE1 (MATE1; [2]): 12.11
MATE2 (MATE2K): 2.26
MATE2K ratio (MATE2K): 2.26

CN(CC(=O)O)C(=N)N [Creatine]
MATE1 ratio (MATE1): 1.01
MATE2K ratio (MATE2K): 1.07

CC(C)NC(=N)NC(=N)Nc1ccc(Cl)cc1 [Proguanil]
MATE1 ratio in this study (MATE1; Table S1, 2.5 μM, 1 min): 5.54
MATE1 ratio (MATE1; [1]): 5.54
MATE2K ratio in this study (MATE2K; Table S1, 2.5 μM, 1 min): 3.98
MATE2K ratio (MATE2K; [1]): 3.98

CC(C)(C)NCC(O)c1ccccc1Cl (centres unmarked) [Tulobuterol]
MATE1 (MATE1; [2]): 1.31
MATE2 (MATE2K; [3]): 1.74

CNCc1ccc(CSCCN/C(=C/[N+](=O)[O-])NC)o1 [N-Desmethylranitidine]
MATE1 ratio (MATE1; [1]): 23.54
MATE2K ratio (MATE2K; [1]): 14.02

Cc1cc(O)cc(C)c1OCC(C)N (centres unmarked) [4-Hydroxymexiletine]
MATE1 ratio (MATE1; [1]): 1.67
MATE1 (uptake ratio) (MATE1; [4]): 1.67
MATE2K ratio (MATE2K; [1]): 1.42
MATE2 (uptake ratio) (MATE2K; [5]): 1.42

CC1(C)S[C@@H]2[C@H](NC(=O)[C@H](N)c3ccc(O)cc3)C(=O)N2[C@H]1C(=O)O [Amoxicillin]
MATE1 ratio (MATE1; [1]): 1.82
MATE1 (uptake ratio) (MATE1; [4]): 1.82
MATE2K ratio (MATE2K; [1]): 0.67
MATE2 (uptake ratio) (MATE2K; [5]): 0.67

COC(=O)[C@@H]1[C@H]2C[C@H]3c4[nH]c5ccccc5c4CCN3C[C@@H]2CC[C@@H]1O [Yohimbin]
MATE1 (MATE1; [2]): 1.11
MATE2 (MATE2K; [3]): 1.35

CO[C@H]1/C=C/O[C@@]2(C)Oc3c(C)c(O)c4c(O)c(c(/C=N/N5CCN(C)CC5)c(O)c4c3C2=O)NC(=O)/C(C)=C\C=C\[C@H](C)[C@H](O)[C@@H](C)[C@@H](O)[C@@H](C)[C@H](OC(C)=O)[C@@H]1C [Rifampicin]
MATE1 ratio (MATE1; [1]): 1.02
MATE1 (MATE1; [2]): 1.02
MATE2K ratio (MATE2K; [1]): 0.93
MATE2 (MATE2K; [3]): 0.93

CCN1CCC[C@H]1CNC(=O)c1cc(S(N)(=O)=O)ccc1OC [Sulpiride (S)]
MATE2 (MATE2K): 18.54

C#CCN(C)[C@H](C)Cc1ccccc1 [Selegiline (S), Selegiline]
MATE2 (MATE2K): 1.08

Cc1ccc(O)c([C@H](CCN(C(C)C)C(C)C)c2ccccc2)c1 [Tolterodine (R)]
MATE2 (MATE2K): 1.06

NCCNCCNCCN [Triethylentetramine]
MATE1 (MATE1; [2]): 0.65

Cc1ccc(O)c(C(CCN(C(C)C)C(C)C)c2ccccc2)c1 (stereo in doubt) [Tolterodine (S)]
MATE1 (MATE1): 1.16

NCCS(=O)(=O)O [Taurine]
MATE2 (MATE2K; [3]): 1.2

NC(=O)[C@@H]1CCCN1C(=O)[C@H](Cc1cnc[nH]1)NC(=O)[C@@H]1CCC(=O)N1 [Thyrotropin-Releasing-Hormon]
MATE1 (MATE1; [2]): 1.71
